Here are results for nine compounds from ChEMBL document CHEMBL5325456, “5-(4-Hydroxyphenyl)-3H-1,2-dithiole-3-thione derivatives of brefeldin A: Design, synthesis and cytotoxicity in MDA-MB-231 human breast cancer cells” (Bioorg Med Chem, 2023).

The subject of one series is MDA-MB-231. Description: Antiproliferative activity against human MDA-MB-231 cells assessed as reduction in cell viability incubated for 48 hrs by CCk-8 assay. The class given is functional, cell-based. The conditions noted are these: MDA-MB-231, 48 h.
The test system of another series is DU-145. Kind of series: Antiproliferative activity against human DU-145 cells assessed as reduction in cell viability incubated for 48 hrs by CCk-8 assay. The format is functional, cell-based. The conditions noted are these: DU-145, 48 h.
The nature of series [1]: Selectivity index, ratio of IC50 for antiproliferative activity against human L02 cells to IC50 for antiproliferative activity against human MDA-MB-231 cells. The class given is toxicity, cell-based. The conditions noted are these: L02 cells and MDA-MB-231 cells, read-out: Ratio IC50.
The next series relates to HepG2. Description: Antiproliferative activity against human HepG2 cells assessed as reduction in cell viability incubated for 48 hrs by CCk-8 assay. The class given is functional, cell-based. The conditions noted are these: HepG2, 48 h.
The subject of the next series is A549. Description: Antiproliferative activity against human A549 cells assessed as reduction in cell viability incubated for 48 hrs by CCk-8 assay. The class given is functional, cell-based. The conditions noted are these: A549, 48 h.
The subject of another series is HeLa. Kind of series: Antiproliferative activity against human HeLa cells assessed as reduction in cell viability incubated for 48 hrs by CCk-8 assay. The class given is functional, cell-based.
Series [2] in a line: Antiproliferative activity against human L02 cells assessed as reduction in cell viability incubated for 48 hrs by CCk-8 assay. The format is toxicity, cell-based.
A further series concerns A-375. Description: Antiproliferative activity against human A-375 cells assessed as reduction in cell viability incubated for 48 hrs by CCk-8 assay. The format is functional, cell-based. The conditions noted are these: A-375, 48 h.

Some results are limits rather than exact numbers.

As for `C[C@H]1CCC/C=C/[C@@H]2C[C@H](O)C[C@H]2[C@H](OC(=O)CCCC(=O)OCCCCOc2ccc(-c3cc(=S)ss3)cc2)/C=C/C(=O)O1`, the IC50 in the series with MDA-MB-231 came out at 160 nM; with DU-145, 430 nM; with HepG2, 440 nM; in the series on A549, 1040 nM; with HeLa, 230 nM; with A-375 it was 930 nM. In addition, the selectivity ratio in series [1] came to 2.69. Moreover, the IC50 at 48 h in series [2] amounted to 430 nM.
In the case of `C[C@H]1CCC/C=C/[C@@H]2C[C@H](O)C[C@H]2[C@H](OC(=O)CCCC(=O)Oc2ccc(-c3cc(=S)ss3)cc2)/C=C/C(=O)O1`, the IC50 was 9650 nM in the series with MDA-MB-231; 19500 nM with DU-145; 18000 nM in the series with HepG2; 18200 nM in the series on A549; 5300 nM in the series on HeLa; 30000 nM in the series with A-375. In addition, the selectivity ratio in series [1] stood at 2.57. Further, in series [2], the half-maximal inhibitory concentration (IC50) at 48 h stood at 24800 nM.
Take `C[C@H]1CCC/C=C/[C@@H]2C[C@H](O)C[C@H]2[C@H](OC(=O)CCC(=O)Oc2ccc(-c3cc(=S)ss3)cc2)/C=C/C(=O)O1`: the IC50 in the series with MDA-MB-231 was 1350 nM; in the series on DU-145 it was 16100 nM; with HepG2, 7440 nM; in the series on A549, 3190 nM; in the series with HeLa it was 2350 nM; in the series with A-375, 3620 nM. Further, in series [1], the selectivity ratio worked out at 6.06. In addition, the IC50 at 48 h in series [2] was 8180 nM.
Regarding `C[C@H]1CCC/C=C/[C@@H]2C[C@H](O)C[C@H]2[C@H](OC(=O)CCCC(=O)OCCCCCCOc2ccc(-c3cc(=S)ss3)cc2)/C=C/C(=O)O1`, the IC50 was determined as 510 nM in the series with MDA-MB-231; 1110 nM with DU-145; 1720 nM in the series on HepG2; 670 nM in the series on A549; 370 nM with HeLa; 530 nM in the series with A-375. Further, in series [1], the selectivity ratio is 6.35. For the same compound, the half-maximal inhibitory concentration (IC50) at 48 h in series [2] was found to be 3240 nM.
On to `C[C@H]1CCC/C=C/[C@@H]2C[C@H](O)C[C@H]2[C@H](OC(=O)CCC(=O)OCCCCOc2ccc(-c3cc(=S)ss3)cc2)/C=C/C(=O)O1`, for which the IC50 amounted to 500 nM in the series with MDA-MB-231; 870 nM with DU-145; 720 nM in the series with HepG2; 1460 nM in the series with A549; 860 nM in the series on HeLa; 830 nM with A-375. Moreover, the selectivity ratio in series [1] came to 3.28. Further, in series [2], the IC50 at 48 h was found to be 1640 nM.
For the compound `C[C@H]1CCC/C=C/[C@@H]2C[C@H](O)C[C@H]2[C@H](OC(=O)c2ccccc2C(=O)Oc2ccc(-c3cc(=S)ss3)cc2)/C=C/C(=O)O1`, the IC50 with MDA-MB-231 is 1340 nM; with DU-145, above 40000 nM; with HepG2, 7030 nM; with A549, 330 nM; in the series with HeLa, 300 nM; with A-375, 1070 nM. Besides, the selectivity ratio in series [1] is 2.64. In addition, in series [2], the 50% inhibitory concentration (IC50) at 48 h turned out to be 3550 nM.
As for `C[C@H]1CCC/C=C/[C@@H]2C[C@H](O)C[C@H]2[C@H](OC(=O)CCC(=O)OCCOc2ccc(-c3cc(=S)ss3)cc2)/C=C/C(=O)O1`, the IC50 came out at 1190 nM in the series with MDA-MB-231; 1850 nM in the series on DU-145; 4650 nM with HepG2; 2730 nM in the series on A549; 3470 nM with HeLa; 1690 nM in the series on A-375. For the same compound, the selectivity ratio in series [1] was determined as 6.97. The half-inhibitory concentration (IC50) at 48 h in series [2] is 8300 nM.
For `C[C@H]1CCC/C=C/[C@@H]2C[C@H](O)C[C@H]2[C@H](OC(=O)CCC(=O)OCCCCCCOc2ccc(-c3cc(=S)ss3)cc2)/C=C/C(=O)O1`, the half-inhibitory concentration (IC50) with MDA-MB-231 was found to be 1410 nM; with DU-145 it was 3640 nM; in the series on HepG2, 3420 nM; with A549 it was 1520 nM; in the series with HeLa it was 770 nM; with A-375 it was 640 nM. Also, the selectivity ratio in series [1] is 2.31. For the same compound, in series [2], the 50% inhibitory concentration (IC50) at 48 h was 3260 nM.
`C[C@H]1CCC/C=C/[C@@H]2C[C@H](O)C[C@H]2[C@H](O)/C=C/C(=O)O1` [BREFELDIN A]: the concentration for half-maximal inhibition (IC50) came out at 54 nM in the series with MDA-MB-231; 160 nM in the series with DU-145; 120 nM in the series with HepG2; 56 nM in the series with A549; 44 nM in the series on HeLa; 39 nM with A-375. For the same compound, the selectivity ratio in series [1] is 1.74. In addition, the IC50 at 48 h in series [2] came to 94 nM.

Broadly, the IC50 is the point on the concentration scale where inhibition reaches its midpoint.
